The results in this text go back to BindingDB's records for doi:10.1016/j.bmc.2004.09.056 (Pfizer, 2005).

For the test, the target named is T1, Renin (Homo sapiens, UniProt P00797).
T1 sequence (P00797 whole entry): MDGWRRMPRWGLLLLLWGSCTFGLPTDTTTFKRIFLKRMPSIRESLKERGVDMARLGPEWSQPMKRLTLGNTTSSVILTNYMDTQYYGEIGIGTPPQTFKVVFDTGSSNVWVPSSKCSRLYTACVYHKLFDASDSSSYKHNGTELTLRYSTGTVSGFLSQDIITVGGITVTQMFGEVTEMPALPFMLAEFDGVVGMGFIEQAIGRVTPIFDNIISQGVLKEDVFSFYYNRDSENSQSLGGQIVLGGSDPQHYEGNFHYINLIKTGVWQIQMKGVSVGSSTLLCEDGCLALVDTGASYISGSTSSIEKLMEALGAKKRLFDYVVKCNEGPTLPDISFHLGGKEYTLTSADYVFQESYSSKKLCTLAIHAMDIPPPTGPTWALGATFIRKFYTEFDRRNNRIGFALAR
The test is described as follows: In Vitro Renin IC50 Determinations (Tandem GFP FRET Assay). Particulars: pH 7.4; 22 °C. The source says: The renin assay utilized a tandem Green Flourescent Protein (tGFP) substrate that was hydrolyzed by human rennin. The tGFP substrate contained a nine amino acid (Ile-His-Pro-Phe-His-Leu-Val-Ile-His) recognition sequence for human renin flanked by two GPF proteins (W1B and Topaz). Human rennin cleaves the leucine-valine site of the substrate linker. Once cleaved, the emission ratio changes. The change was monitored by the ratio of 530 nm (topaz) over 475 nm (W1B) with the excitation set at 432 nm and the cutoff at 515 nm. The assay used a 384 well plate format that was read using a Gemini XS Fluorometric plate reader (Molecular Devices). Compounds were screened at a starting concentration of 10 uM and used a fourfold eleven-point dilution regiment.

Each structure is given as a SMILES string.

Consider `COc1ccccc1COCCCOc1ccc([C@H]2CCNC[C@H]2NCc2ccc3[nH]ccc3c2)cc1` (mixture of isomers) [(3S,4R)-N-(1H-indol-5-ylmethyl)-4-(4-{3-[(2-methoxyphenyl)methoxy]propoxy}phenyl)piperidin-3-amine], for which the IC50 came to 2.28 µM.

`COc1ccc2cc(CN[C@@H]3CNCC[C@@H]3c3ccc(OCCCOCc4ccccc4OC)cc3)ccc2c1` (mixture of isomers) [(3S,4R)-N-[(6-methoxynaphthalen-2-yl)methyl]-4-(4-{3-[(2-methoxyphenyl)methoxy]propoxy}phenyl)piperidin-3-amine] gave an IC50 of 0.073 µM.

`COc1ccccc1COCCCOc1ccc([C@H]2CCNC[C@H]2NC(=O)c2ccc3ccccc3c2)cc1` (mixture of isomers) [mixture of cis isomers] registered an IC50 above 10 µM.

`COc1ccccc1COCCCOc1ccc([C@H]2CCNC[C@H]2NCc2ccc(-c3ccccc3)cc2)cc1` (mixture of isomers) [mixture of cis isomers] had an IC50 above 10 µM.

Molecule `COc1ccccc1COCCCOc1ccc([C@H]2CCNC[C@H]2NCc2ccc3cccnc3c2)cc1` (mixture of isomers) [mixture of cis isomers] yielded an IC50 of 0.175 µM.

`COc1ccccc1COCCCOc1ccc([C@H]2CCNC[C@H]2NCc2ccc3occc3c2)cc1` (mixture of isomers) [mixture of cis isomers] displayed an IC50 of 0.393 µM.

In turn, `COc1ccccc1COCCCOc1ccc([C@H]2CCNC[C@H]2NCc2ccc3ccccc3c2)cc1` [(3S,4R)-4-(4-{3-[(2-methoxyphenyl)methoxy]propoxy}phenyl)-N-(naphthalen-2-ylmethyl)piperidin-3-amine] had a half-maximal inhibitory concentration (IC50) of 0.061 µM.

As for `COc1ccccc1COCCCOc1ccc([C@H]2CCNC[C@H]2NCc2ccc3c(c2)NCCC3)cc1` [mixture of cis isomers], the half-maximal inhibitory concentration (IC50) stood at 0.255 µM. Against the preceding molecule, the IC50 is about 4.2-fold higher.

As a reminder, the IC50 is the concentration that gives 50% inhibition. Read a low IC50 as greater potency in that assay.
